Test results as given in patent US20250057840A1, “COMPOSITIONS AND METHODS FOR THE TREATMENT OF DISEASES WITH ISOCITRATE DEHYDROGENASE 1/2 MUTATIONS” (Fred Hutchison Cancer Center, priority 2023, published 2025).
Like-named read-outs stand apart in the source and are kept apart here.

Assays:
ICC2 cells (IDH WT ICC) [1] = experiment: cells; details: Homo sapiens, read-out: Proliferation IC50
Experimental: (§1) Proliferation Assays. Cells were plated in 96-well plates (1,000 cells/well) in culture medium. […] The cells were allowed to grow 5-7 days until control wells were confluent. Viable cells were quantified by adding MTT (M-6494; ThermoFisher Scientific) at a final concentration of 1 mg/mL for 3 hours at 37° C. 100 μL/well of DMSO was added to solubilize formazan crystals. Absorbance was read at 490 nm and normalized to DMSO control. For each experimental condition, duplicate wells were seeded, and data is represented as mean±SEM among three independent experiments.

ICC5 cells (IDHm ICC) [2] = experiment: cells; details: Homo sapiens, read-out: Proliferation IC50
Experimental: as §1

[3] = system: SNU-1079 cells (IDHm ICC); experiment: MTT proliferation / cell viability assay in SNU-1079; format: cell-based, human; details: Homo sapiens, read-out: Proliferation IC50
Experimental: (§2) FIGS. 46A-46C are IC50 curves of IDH WT and mutant cells lines to S6K inhibitors. IDHm cells (SNU-1079 and RBE) and IDH WT cells (CCLP1 and HuCCT1) were treated with S6K inhibitors M2698 (FIG. 46A), PF-4708671 (FIG. 46B), and LY2584702 (FIG. 46C) for 7 days, and the cell viabilities were measured by MTT assay.

[4] = system: HuCCT1 cells (IDH WT ICC); experiment: cells; details: Homo sapiens, HuCCT-1, read-out: Survival IC50
ICC5 cells (IDHm ICC) [5] = experiment: cells; details: Homo sapiens, read-out: Survival IC50
RBE cells (IDHm ICC) [6] = experiment: MTT proliferation / cell viability assay in RBE; format: cell-based, human; details: Homo sapiens, read-out: Proliferation IC50
Experimental: as §2

ICC2 cells (IDH WT ICC) [7] = experiment: cells; details: Homo sapiens, read-out: Survival IC50
[8] = system: HuCCT1 cells (IDH WT ICC); experiment: MTT proliferation / cell viability assay in HuCCT1; format: cell-based, human; details: Homo sapiens, HuCCT-1, read-out: Proliferation IC50
Experimental: as §2

[9] = system: mTOR, ERK, and STAT3 survival pathways (pS6K, pS6) in IDH WT ICC cell lines (HuCCT1, CCLP1, ICC2); experiment: Western blot of survival pathways in IDH WT ICC cell lines; format: cell-based, human; details: 6 hours of dasatinib treatment; three IDH WT ICC lines
Experimental: Protein Isolation and Western Blot. Protein lysates were prepared by lysing cells directly in NP-40 buffer supplemented with a protease inhibitor cocktail (Complete EDTA-free, Roche Applied Science), […] and phosphatase inhibitors (Phosphatase Inhibitor Cocktail Sets I and II, Calbiochem). Cells suspended in lysis buffer were sonicated for 10 seconds of active sonication, followed by 20 seconds of rest for 3 cycles at 20% amplitude. The lysate was then centrifuged at 14,000 rpm for 10 mins at 4° C. and the supernatant was harvested. A BCA protein assay kit (Pierce) was used to measure and normalize protein concentration. 30 μg of the cell lysate was run on a 4-20% gradient polyacrylamide gel with SDS (Biorad) and electroblotted onto polyvinylidene difluoride membranes (PVDF) (Millipore). Membranes were blocked in TBS-T with 5% non-fat milk and 0.1% Tween and probed with primary antibodies (Table 1). Horseradish-peroxidase-conjugated secondary antibodies (Vector Biolaboratories) were used to detect membrane-bound proteins. Blots were developed using Clarity Max Western ECL Blotting Substrate (Biorad). Signaling experiments are representative of at least two independent experiments.

[10] = system: SNU-1079 cells (IDHm ICC); experiment: cells; details: Homo sapiens, read-out: Survival IC50
RBE cells (IDHm ICC) [11] = experiment: cells; details: Homo sapiens, read-out: Survival IC50
CCLP1 cells (IDH WT ICC) = experiment: Survival curves in CCLP1; format: cell-based; details: Homo sapiens, CC-LP-1, FIG. 1B

Cc1nc(Nc2ncc(C(=O)Nc3c(C)cccc3Cl)s2)cc(N2CCN(CCO)CC2)n1 [dasatinib]
IC50 (ICC2 cells (IDH WT ICC) [1]): 0.0506 µM
IC50 (ICC5 cells (IDHm ICC) [2]): 0.00593 µM
IC50 [3]: 0.0114 µM
IC50 [4]: 0.977 µM
IC50 (ICC5 cells (IDHm ICC) [5]): 0.0417 µM
IC50 (RBE cells (IDHm ICC) [6]): 0.00275 µM
IC50 (ICC2 cells (IDH WT ICC) [7]): 0.162 µM
IC50 [8]: 0.0979 µM
effect on pathways evaluated (S6K/S6, ERK, STAT3) [9]: no effect
IC50 [10]: 0.0226 µM
IC50 (RBE cells (IDHm ICC) [11]): 0.0041 µM
IC50 (CCLP1 cells (IDH WT ICC)): 8.04 µM
